From publication PMC6439305 (iScience, 2019) come the findings set out here.

This assay concerns the target MOR-Venus (mu opioid receptor fused to Venus-YFP) (Mus musculus, UniProt P42866). As to the kind of experiment: Galphai2/Ggamma2 BRET2 dissociation assay, HEK293. The following applies: agonist, 10 min stimulation. In kind it is cell-based. On the technique in general: Bioluminescence resonance energy transfer reports proximity on the nanometre scale.

Sequence of MOR-Venus (mu opioid receptor fused to Venus-YFP) (P42866 whole entry, the tested form may be a part): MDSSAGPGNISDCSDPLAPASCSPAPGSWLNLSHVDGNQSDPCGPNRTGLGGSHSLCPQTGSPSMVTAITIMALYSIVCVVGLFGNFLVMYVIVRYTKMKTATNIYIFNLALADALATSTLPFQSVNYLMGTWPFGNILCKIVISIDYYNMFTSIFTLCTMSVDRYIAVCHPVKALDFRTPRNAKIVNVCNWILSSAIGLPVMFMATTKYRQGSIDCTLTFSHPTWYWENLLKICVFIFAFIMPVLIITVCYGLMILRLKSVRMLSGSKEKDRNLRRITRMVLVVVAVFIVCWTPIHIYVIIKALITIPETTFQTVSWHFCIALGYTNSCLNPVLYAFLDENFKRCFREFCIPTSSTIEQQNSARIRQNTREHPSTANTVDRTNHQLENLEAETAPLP

`COc1ccc2c3c1O[C@H]1C(=O)CC[C@@]4(O)[C@@H](C2)N(C)CC[C@]314` [oxycodone]: the EC50 result is reported as “except for oxycodone, which had a trend of lower potency”.
